Consider twelve compounds from patent US20090221642A1, “MUSCARINIC RECEPTOR AGONISTS, COMPOSITIONS, METHODS OF TREATMENT THEREOF, AND PROCESSES FOR PREPARATION THEREOF-176” (AstraZeneca AB, priority 2008, published 2009).

Experiment [1] addresses T1, hM1 (human Muscarinic receptor subtype 1) (Homo sapiens, UniProt P11229).
T1 construct: expressed in transfected cells; host or cells: CHO cells (Chinese hamster ovary cells, ATCC)
T1 sequence (P11229 1-460): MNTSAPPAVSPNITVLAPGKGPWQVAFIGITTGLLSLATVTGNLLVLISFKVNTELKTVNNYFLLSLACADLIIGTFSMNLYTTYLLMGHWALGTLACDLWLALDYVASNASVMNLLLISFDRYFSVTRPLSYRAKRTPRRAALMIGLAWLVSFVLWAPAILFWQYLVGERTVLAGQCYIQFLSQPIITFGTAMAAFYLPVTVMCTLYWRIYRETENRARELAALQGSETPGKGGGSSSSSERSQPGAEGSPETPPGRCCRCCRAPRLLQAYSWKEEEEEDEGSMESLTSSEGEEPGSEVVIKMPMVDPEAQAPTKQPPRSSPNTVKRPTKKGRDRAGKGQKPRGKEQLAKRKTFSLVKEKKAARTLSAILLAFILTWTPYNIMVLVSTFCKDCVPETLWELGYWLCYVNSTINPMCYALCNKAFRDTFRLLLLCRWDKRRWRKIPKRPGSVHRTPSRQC
Briefly: Human M1 calcium mobilization FLIPR assay. The experiment is classed as cell-based. The conditions noted are these: hM1 expressed in CHO cells, intracellular Ca2+ release, read-out: hM1 EC50. An outline of the steps:
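CHO cells expressing the receptor, dye-loaded at 37°C for 60 min, read on FLIPR at 510-570 nm. Agonism taken from compound-induced Ca2+ rise (max RFU for M1); M3/M5 inhibition measured against 2 nM acetylcholine using max minus min RFU. 10-point threefold dilutions, sigmoidal fits.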

The target in experiment [2] is T2, cloned human M2 receptor (human Muscarinic receptor subtype 2) (Homo sapiens, UniProt P08172).
T2 construct: purchased Perkin-Elmer RBHM2M; host or cells: Chinese hamster ovary cells (CHO) membranes
T2 sequence (P08172 1-466): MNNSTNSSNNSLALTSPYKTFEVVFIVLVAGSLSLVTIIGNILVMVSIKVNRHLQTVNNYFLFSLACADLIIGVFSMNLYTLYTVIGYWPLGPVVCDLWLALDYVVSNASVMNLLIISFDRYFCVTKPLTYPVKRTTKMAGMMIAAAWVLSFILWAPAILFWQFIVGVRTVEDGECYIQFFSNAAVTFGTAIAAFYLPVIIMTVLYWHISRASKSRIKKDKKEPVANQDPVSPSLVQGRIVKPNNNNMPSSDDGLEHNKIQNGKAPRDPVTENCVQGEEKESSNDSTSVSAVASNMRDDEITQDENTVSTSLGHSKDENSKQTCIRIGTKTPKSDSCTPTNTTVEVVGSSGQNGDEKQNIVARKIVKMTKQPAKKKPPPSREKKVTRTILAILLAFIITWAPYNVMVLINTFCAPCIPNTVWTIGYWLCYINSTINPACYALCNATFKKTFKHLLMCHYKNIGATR
Briefly: hM2 receptor GTPγS binding. The conditions noted are these: CHO cell membranes expressing hM2; [35S]GTPγS binding; read-out: hM2 EC50. The format is biochemical. An outline of the steps:
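CHO-cell membranes expressing human M2 receptor, scintillation-bead [35S]GTPγS binding (0.4 nM) with 12.5 μM GDP, pH 7.4 Hepes buffer, 60 min at room temperature. Agonism: stimulation vs 30 μM acetylcholine maximum; antagonism: reversal of 2 μM acetylcholine stimulation. EC50/IC50/Emax from 10-point sigmoidal fits.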

Each structure is given as a SMILES string.

Take `CCOC(=O)N1CCC(C)(N2CCC(N3C(=O)Cc4ccc(C)cc43)CC2)C1` (single isomer, unassigned) [Example 69, ethyl 3-methyl-3-(4-(6-methyl-2-oxoindolin-1-yl)piperidin-1-yl)pyrrolidine-1-carboxylate]: the EC50 in experiment [1] came out at 11 nM; in experiment [2], 1860 nM.

As for `C#CCOC(=O)N1CCC(C)(N2CCC(n3c(=O)[nH]c4cc(F)ccc43)CC2)C1` (single isomer, unassigned) [Example 36, prop-2-ynyl 3-(4-(5-fluoro-2-oxo-2,3-dihydro-1H-benzo[d]imidazol-1-yl)piperidin-1-yl)-3-methylpyrrolidine-1-carboxylate], the EC50 is 32 nM in experiment [1] and 1560 nM in experiment [2].

For the compound `Cc1ccc2[nH]c(=O)n(C3CCN(C4(C)CCN(C(=O)OC(C)C)C4)CC3)c2c1` (single isomer, unassigned) [Example 40, isopropyl 3-methyl-3-(4-(6-methyl-2-oxo-2,3-dihydro-1H-benzo[d]imidazol-1-yl)piperidin-1-yl)pyrrolidine-1-carboxylate], the results for the EC50 in experiment [1] and in experiment [2] were 36.3 nM and 2810 nM, respectively.

`CC1(N2CCC(n3c(=O)[nH]c4cc(F)ccc43)CC2)CCN(C(=O)OCCF)C1` (stereo not drawn) [Example 10, 2-fluoroethyl 3-(4-(5-fluoro-2-oxo-2,3-dihydro-1H-benzo[d]imidazol-1-yl)piperidin-1-yl)-3-methylpyrrolidine-1-carboxylate]: the figures for the EC50 in experiment [1] and in experiment [2] were 26.3 nM and 2140 nM, respectively.

As for `CC1(N2CCC(n3c(=O)[nH]c4cc(F)ccc43)CC2)CCN(C(=O)OCCF)C1` (single isomer, unassigned) [Example 24, 2-fluoroethyl 3-(4-(5-fluoro-2-oxo-2,3-dihydro-1H-benzo[d]imidazol-1-yl)piperidin-1-yl)-3-methylpyrrolidine-1-carboxylate], the values for the EC50 in experiment [1] and in experiment [2] were 10.4 nM and 1350 nM, respectively.

On to `CCOC(=O)N1CCC(C)(N2CCC(N3C(=O)Cc4cc(F)ccc43)CC2)C1` (single isomer, unassigned) [Example 80, ethyl 3-(4-(5-fluoro-2-oxoindolin-1-yl)piperidin-1-yl)-3-methylpyrrolidine-1-carboxylate], for which the figures for the EC50 in experiment [1] and in experiment [2] were 69.4 nM and 3260 nM, respectively.

For `CCNC(=O)N1CCC(C)(N2CCC(n3c(=O)[nH]c4ccccc43)CC2)C1` (stereo not drawn) [Example 5, N-ethyl-3-methyl-3-(4-(2-oxo-2,3-dihydro-1H-benzo[d]imidazol-1-yl)piperidin-1-yl)pyrrolidine-1-carboxamide], the concentration for a half-maximal effect (EC50) in experiment [1] came out at 43.3 nM; in experiment [2] it was 5130 nM.

Take `COC(=O)N1CCC(C)(N2CCC(N3C(=O)Cc4ccc(C)cc43)CC2)C1` (single isomer, unassigned) [Example 67, methyl 3-methyl-3-(4-(6-methyl-2-oxoindolin-1-yl)piperidin-1-yl)pyrrolidine-1-carboxylate]: the EC50 was 20.9 nM in experiment [1] and 4650 nM in experiment [2].

In the case of `CCOC(=O)N1CCC(C)(N2CCC(N3C(=O)Cc4ccc(F)cc43)CC2)C1` (single isomer, unassigned) [Example 75, ethyl 3-(4-(6-fluoro-2-oxoindolin-1-yl)piperidin-1-yl)-3-methylpyrrolidine-1-carboxylate], the concentration for a half-maximal effect (EC50) in experiment [1] came out at 47.5 nM; in experiment [2] it was 2620 nM.

Turning to `CCOC(=O)N1CCC(C)(N2CCC(n3c(=O)[nH]c4ccc(C)cc43)CC2)C1` (stereo not drawn) [Example 16, ethyl 3-methyl-3-(4-(6-methyl-2-oxo-2,3-dihydro-1H-benzo[d]imidazol-1-yl)piperidin-1-yl)pyrrolidine-1-carboxylate], the EC50 in experiment [1] is 8.1 nM; in experiment [2], 418 nM.

With `COC(=O)N1CCC(C)(N2CCC(n3c(=O)[nH]c4cc(F)ccc43)CC2)C1` (single isomer, unassigned) [Example 23, methyl 3-(4-(5-fluoro-2-oxo-2,3-dihydro-1H-benzo[d]imidazol-1-yl)piperidin-1-yl)-3-methylpyrrolidine-1-carboxylate], the EC50 in experiment [1] is 9.4 nM; in experiment [2], 668 nM.

With `C#CCOC(=O)N1CCC(C)(N2CCC(n3c(=O)[nH]c4ccc(C)cc43)CC2)C1` (single isomer, unassigned) [Example 43, prop-2-ynyl 3-methyl-3-(4-(6-methyl-2-oxo-2,3-dihydro-1H-benzo[d]imidazol-1-yl)piperidin-1-yl)pyrrolidine-1-carboxylate], the EC50 in experiment [1] was 2.5 nM; in experiment [2], 109 nM.
